Measured values as given in US6573288B1, “Substituted sulphonyl cyanamides, method for producing same and their use as medicament” (Aventis Pharma Deutschland GmbH, priority 1998, dated 2003).

Columns and labels:
[1] = test system: Na+-dependent Cl-/HCO3 exchanger (NCBE); experiment: Inhibition of the Na+-dependent Cl-/HCO3- exchanger (NCBE) in human endothelial cells (BCECF fluorescence, FLIPR, pHi recovery); assay type: cell-based; conditions: inhibitor concentration of 10 μM; human endothelial cells (ECV-304); in presence of 50 μM HOE 642
Method: Inhibition of the Na^+-dependent Cl^−/HCO3 exchanger (NCBE) in human endothelial cells
Human endothelial cells (ECV-304) were detached from culture flasks with the aid of trypsin/EDTA buffer (0.05/0.02% in phosphate buffer) and, after centrifugation (100 g, 5 min), taken up in a buffered salt solution (mmol/l: 115 NaCl, 20 NH4Cl, 5 KCl, 1 CaCl2, 1 MgSO4, 20 N-(2-hydroxyethyl)piperazine-N=-2-ethanesulfonic acid (HEPES), 5 glucose and 1, g/l of bovine serum albumin; pH 7.4). This cell suspension was incubated at 37° C. for 20 min with 5 μM BCECF acetoxymethyl ester. The cells were then washed and resuspended in a sodium- and bicarbonate-free buffer solution (mmol/l: 5 HEPES, 133.8 choline chloride, 4.7 KCl, 1.25 MgCl2, 0.97 K2HPO4, 0.23 KH2PO4, 5 glucose; pH 7.4).
For the subsequent fluorescence measurement in the FLIPR (Fluorescent Imaging Plate Reader), 100 μl of this cell suspension in each case containing 20,000 cells were added by pipette per well of a 96-well microtiter plate and this microtiter plate was centrifuged (100 g, 5 min). In the FLIPR, 100 μl of buffer solution in each case were then removed from a further prepared microtiter plate and added by pipette to each of the 96 wells of the measuring plate. In this case, for a 100% control, i.e. a recovery of the intracellular pH (pHi) by means of the NCBE, a bicarbonate- and sodium-containing buffer solution (mmol/l: 5 HEPES, 93.8 NaCl, 40 NaHCO3, 4.7 KCl, 1.25 CaCl2, 1.25 MgCl2, 0.97 Na2HPO4, 0.23 NaH2PO4, 5 glucose; pH 7.4) which contained 50 μM HOE 642 was used. […]
After addition of the buffer solutions to the dye-loaded acidified cells situated in the measuring plate, the increase in the fluorescence intensity which corresponded to an increase in the pHi was determined in each well of the microtiter plate. The kinetics were in this case recorded at 35° C. over a period of 2 minutes.
The increase in the fluorescence intensities for different concentrations of the compounds according to the invention was related to the two controls and from this the inhibitory action of the substances was determined.

Row | melting point [°C] | SMILES | Residual activity of the NCBE [1] [%]
1 | 62 | CCCCc1nc(SC)c(C(=O)OCC)n1Cc1ccc(Cc2cccc(S(=O)(=O)NC#N)c2)cc1 [Example 1, Ethyl 2-butyl-5-methylsulfanyl-3-[4-(3′-cyanoaminosulfonylbenzyl)benzyl]-3H-imidazole-4-carboxylate] | 11.1
2 | 172 to 174 | CCCCc1nc(SC)c(C(=O)OCC)n1Cc1cccc(Cc2cccc(S(=O)(=O)NC#N)c2)c1 [Example 2, Ethyl 2-butyl-5-methylsulfanyl-3-[3-(3′-cyanoaminosulfonylbenzyl)benzyl]-3H-imidazole-4-carboxylate] | 35.2
3 | 75 | N#CNS(=O)(=O)c1cccc(Cc2cccc(Cn3c(-c4ccccc4)nc(Cl)c3C=O)c2)c1 [Example 3, 2-Phenyl-4-formyl-5-chloro-3-[3-(3′-cyanoaminosulfonylbenzyl)benzyl]-3H-imidazole] | 24.3
